Measurements published in patent publication US20170280720A1, “ARGININE […] INHIBITORS AND USES THEREOF” (EPIZYME, INC., priority 2014, published 2017).

Legend:
[1] = tested on: asymmetric di-methyl PABP1 in RKO cells; assay: In Cell Western (ICW) for asymmetric di-methyl PABP1 and DNA content in RKO cells; type: cell-based; conditions: In Cell Western
From the text: RKO adherent cells were purchased from ATCC (American Type Culture Collection), Manassas, Va., USA. DMEM/Glutamax medium, penicillin-streptomycin, heat inactivated fetal bovine serum, 0.05% trypsin and D-PBS were purchased from Life Technologies, Grand Island, N.Y., USA. Odyssey blocking buffer, 800CW goat anti-rabbit IgG (H+L) antibody, and Licor Odyssey infrared scanner were purchased from Licor Biosciences, Lincoln, Nebr., USA. Mono-methyl arginine antibody was purchased from Cell Signaling Technology, Danvers, Mass., USA. Methanol was purchased from VWR, Franklin, Mass., USA. 10% Tween 20 was purchased from KPL, Inc., Gaithersburg, Md., USA. […] was purchased from Biostatus Limited, Leicestershire, UK. RKO adherent cells were maintained in growth medium (DMEM/Glutamax medium supplemented with 10% v/v heat inactivated fetal bovine serum and 100 units/mL penicillin-streptomycin) and cultured at 37° C. under 5% CO2. Cell Treatment, in Cell Western (ICW) for Detection of Asymmetric Di-Methyl PABP1 and DNA Content. RKO cells were seeded in assay medium at a concentration of 30,000 cells per mL to a poly-D-lysine coated 384 well culture plate (BD Biosciences 356697) with 50 μL per well. Compound (100 nL) from a 96-well source plate was added directly to 384 well cell plate. Plates were incubated at 37° C., 5% CO2 for 48 hours. After two days of incubation, plates were brought to room temperature outside of the incubator for ten minutes and blotted on paper towels to remove cell media. Cells were fixed for 20 minutes at room temperature by adding 50 μl of 8% PFA followed by aspiration of supernatant with the Biotek EL406 plate washer. Cells were then permeabilized by addition of 50 μL of ice cold 100% methanol directly to each well and incubated for 30 min at room temperature. After 30 min, plates were transferred to a Biotek EL406 plate washer and washed 2 times with 100 μL per well of wash buffer (1×PBS). Next 60 μL per well of Odyssey blocking buffer (Odyssey Buffer with 0.1% Tween 20 (v/v)) were added to each plate and incubated 1 hour at room temperature. Blocking buffer was removed and 20 μL per well of primary antibody was added (asymmetric-methyl PABP1) diluted 1:400 in Odyssey buffer with 0.1% Tween 20 (v/v)) and plates were incubated overnight (16 hours) at 4° C. Plates were washed 5 times with 100 μL per well of wash buffer. Next 20 μL per well of secondary antibody was added (1:800 800CW goat anti-rabbit IgG (H+L) antibody, 1:2000 DRAQS in Odyssey buffer with 0.1% Tween 20 (v/v)) and incubated for 1 hour at room temperature. The plates were washed 5 times with 100 μL per well wash buffer then 2 times with 100 μL per well of water. Plates were allowed to dry at room temperature then imaged on the Licor Odyssey machine which measures integrated intensity at 700 nm and 800 nm wavelengths. Both 700 and 800 channels were scanned. Calculations: First, the ratio for each well was determined by: Each plate included fourteen control wells of DMSO only treatment (minimum inhibition) as well as fourteen control wells for maximum inhibition treated with 20 μM of a reference compound. The average of the ratio values for each control type was calculated and used to determine the percent activation for each test well in the plate. Reference compound was serially diluted three-fold in DMSO for a total of nine test concentrations, beginning at 20 μM. Percent inhibition was determined and IC50 curves were generated using triplicate wells per concentration of compound.

human PRMT1 = target: T1, human PRMT1 (Homo sapiens, UniProt Q99873); assay: PRMT1 biochemical assay (3H-SAM Flashplate, peptide substrate); conditions: read-out: PRMT1_ IC50
T1 construct: GST-tagged PRMT1; made in house; host or cells: High Five insect cells (baculovirus, pFastBacI)
From the text: S-adenosylmethionine (SAM), S-adenosylhomocysteine (SAH), bicine, Tween20, dimethylsulfoxide (DMSO), bovine skin gelatin (BSG), and Tris(2-carboxyethyl)phosphine hydrochloride solution (TCEP) were purchased from Sigma-Aldrich at the highest level of purity possible. ^3H-SAM was purchase from American Radiolabeled Chemicals with a specific activity of 80 Ci/mmol. 384-well streptavidin Flashplates were purchased from PerkinElmer.
Peptide representative of human histone H4 residues 36-50 was synthesized with an N-terminal linker-affinity tag motif and a C-terminal amide cap by 21st Century Biochemicals. The peptide was purified by high-performance liquid chromatography (HPLC) to greater than 95% purity and confirmed by liquid chromatography mass spectrometry (LC-MS). The sequence was Biot-Ahx-[…]-amide (SEQ ID NO.: 1).
Full-length human PRMT1 isoform 1 (NM_001536.5) transcript clone was amplified from an HEK 293 cDNA library, incorporating flanking 5′ sequence encoding a FLAG tag ([…]) (SEQ ID NO.: 2) fused directly to Met 1 of PRMT1. The amplified gene was subcloned into pFastBacI (Life Technologies) modified to encode an N-terminal GST tag and a TEV cleavage sequence ([…] […] […] […] QGGNS)(SEQ ID NO.: 3) fused to Asp of the Flag tag of PRMT1.
Recombinant baculovirus were generated according to Bac-to-Bac kit instructions (Life Technologies). Protein over-expression was accomplished by infecting exponentially growing High Five insect cell culture at 1.5×10^6 cell/ml with 1:100 ratio of virus. Infections were carried out at 27° C. for 48 hours, harvested by centrifugation, and stored at −80° C. for purification.
GST-tagged PRMT1 was eluted with 50 mM Tris, 2 mM glutathione, pH 7.8, dialysed in buffer A and concentrated to 1 mg/mL. The purity of recovered protein was 73%. Reference: Wasilko, D. J. and S. E. Lee: “TIPS: titerless infected-cells preservation and scale-up” Bioprocess J., 5 (2006), pp. 29-32.
General Procedure for PRMT1 Enzyme Assays on Peptide Substrates.
The assays were all performed in a buffer consisting of 20 mM Bicine (pH=7.6), 1 mM TCEP, 0.005% BSG, and 0.002% Tween 20, prepared on the day of use. Compounds in 100% DMSO (1 ul) were spotted into a polypropylene 384-well V-bottom plates (Greiner) using a Platemate Plus outfitted with a 384-channel head (Thermo Scientific). DMSO (1 ul) was added to Columns 11, 12, 23, 24, rows A-H for the maximum signal control and 1 ul of SAH, a known product and inhibitor of PRMT1, was added to columns 11, 12, 23, 24, rows I-P for the minimum signal control. A cocktail (40 ul) containing the PRMT1 enzyme was added by Multidrop Combi (Thermo-Fisher). The compounds were allowed to incubate with PRMT1 for 30 min at room temperature, then a cocktail (10 ul) containing SAM and peptide was added to initiate the reaction (final volume=51 ul). The final concentrations of the components were as follows: PRMT1 was 0.5 nM, ^3H-SAM was 200 nM, non-radiolabeled SAM was 1.5 uM, peptide was 20 nM, SAH in the minimum signal control wells was 1 mM, and the DMSO concentration was 2%. The assays were stopped by the addition of non-radiolabeled SAM (10 ul) to a final concentration of 300 uM, which dilutes the ^3H-SAM to a level where its incorporation into the peptide substrate is no longer detectable. 50 ul of the reaction in the 384-well polypropylene plate was then transferred to a 384-well Flashplate and the biotinylated peptides were allowed to bind to the streptavidin surface for at least 1 hour before being washed once with 0.1% Tween20 in a Biotek ELx405 plate washer. The plates were then read in a PerkinElmer TopCount plate reader to measure the quantity of ^3H-labeled peptide bound to the Flashplate surface, measured as disintegrations per minute (dpm) or alternatively, referred to as counts per minute (cpm).
Where dpm=disintegrations per minute, cmpd=signal in assay well, and min and max are the respective minimum and maximum signal controls. […]

T1 sequence (Q99873 with tags, fused parts or gaps): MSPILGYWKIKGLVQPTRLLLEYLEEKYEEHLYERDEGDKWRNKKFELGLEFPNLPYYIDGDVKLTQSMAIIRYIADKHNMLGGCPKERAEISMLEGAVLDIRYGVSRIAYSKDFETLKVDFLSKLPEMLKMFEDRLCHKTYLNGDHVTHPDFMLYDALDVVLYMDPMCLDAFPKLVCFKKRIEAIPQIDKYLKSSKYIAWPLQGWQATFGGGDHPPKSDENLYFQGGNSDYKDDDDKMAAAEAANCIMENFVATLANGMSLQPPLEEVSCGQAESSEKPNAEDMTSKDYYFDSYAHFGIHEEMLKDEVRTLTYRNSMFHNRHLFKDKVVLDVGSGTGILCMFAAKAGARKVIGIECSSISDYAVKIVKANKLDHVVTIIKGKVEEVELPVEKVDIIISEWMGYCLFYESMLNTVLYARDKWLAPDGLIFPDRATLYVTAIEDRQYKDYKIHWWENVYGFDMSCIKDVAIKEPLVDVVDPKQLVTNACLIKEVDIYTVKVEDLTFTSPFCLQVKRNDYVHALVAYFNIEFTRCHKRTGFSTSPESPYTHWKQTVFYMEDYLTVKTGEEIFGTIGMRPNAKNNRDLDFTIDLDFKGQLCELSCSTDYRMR

## CNCCN(C)Cc1cccc(-c2cc(C(=O)NCc3cc(C)on3)c3cnn(C(C)C)c3n2)c1 [Compound 186]
[1]; Homo sapiens, RKO
  IC50: 1400 nM

## CNCCN(C)Cc1cccc(-c2cc(C(=O)NCc3cc(C)on3)c3cnn(C(C)C)c3n2)c1 [Compound 229]
[1]
  IC50: 2250 nM

## CNCCN(C)Cc1cccc(-c2cncc(C(=O)NCc3c(C)cc(C)[nH]c3=O)c2)c1 [Compound 375]
Human PRMT1
  IC50: 101 nM

## Cc1cc(C)c(CNC(=O)c2cncc(-c3cccc(CN(C)CCN)c3)c2)c(=O)[nH]1 [Compound 380]
Human PRMT1
  IC50: 340 nM
